Experimental data taken from US10894784B2, “Heteroarylbenzimidazole compounds” (BAYER PHARMA AKTIENGESELLSCHAFT, priority 2015, dated 2021).

What follows are compounds tested against TBK1 (Homo sapiens (Human), UniProt Q9UHD2) (assay: TBK1 low ATP kinase assay (in vitro assay 1)). Conditions: in vitro assay 1, read-out: TBK1 low ATP kinase assay IC50.
Assay type: biochemical

Sequence of TBK1 (Q9UHD2 whole entry): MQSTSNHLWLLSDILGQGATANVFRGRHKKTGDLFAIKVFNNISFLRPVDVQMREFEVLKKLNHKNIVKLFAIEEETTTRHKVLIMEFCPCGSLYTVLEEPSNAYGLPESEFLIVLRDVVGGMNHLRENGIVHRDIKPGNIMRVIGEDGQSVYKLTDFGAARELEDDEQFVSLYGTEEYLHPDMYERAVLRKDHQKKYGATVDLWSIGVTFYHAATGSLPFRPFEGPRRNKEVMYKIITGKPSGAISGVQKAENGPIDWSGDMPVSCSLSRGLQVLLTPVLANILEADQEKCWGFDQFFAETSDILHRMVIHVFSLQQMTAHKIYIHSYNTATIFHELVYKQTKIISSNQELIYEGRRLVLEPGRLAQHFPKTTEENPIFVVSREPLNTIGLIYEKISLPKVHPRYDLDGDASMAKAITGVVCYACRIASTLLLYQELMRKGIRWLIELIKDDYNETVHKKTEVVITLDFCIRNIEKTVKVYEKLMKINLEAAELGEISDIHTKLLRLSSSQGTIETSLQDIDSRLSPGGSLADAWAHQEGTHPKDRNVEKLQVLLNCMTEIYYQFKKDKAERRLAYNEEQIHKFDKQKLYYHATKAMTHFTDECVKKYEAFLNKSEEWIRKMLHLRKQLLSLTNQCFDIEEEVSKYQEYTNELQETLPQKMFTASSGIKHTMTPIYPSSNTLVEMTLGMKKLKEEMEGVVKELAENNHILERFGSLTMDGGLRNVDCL

SMILES | IC50
Cc1noc(-c2ccc3nc(Nc4cc(CN5CCN(C(=O)c6ccco6)CC5)ccn4)[nH]c3c2)n1 [Example 101.14, furan-2-yl{4-[(2-{[6-(3-methyl-1,2,4-oxadiazol-5-yl)-1H-benzimidazol-2-yl]amino}pyridin-4-yl)methyl]piperazin-1-yl}methanone] | 430 nM
N#Cc1cnccc1-c1ccc2nc(Nc3cc(CN4CCN(C(=O)C5CC5)CC4)ccn3)[nH]c2c1 [Example 103.01, 4-{2-[(4-{[4-(cyclopropylcarbonyl)piperazin-1-yl]methyl}pyridin-2-yl)amino]-1H-benzimidazol-6-yl}pyridine-3-carbonitrile] | 360 nM
Cc1nc(-c2ccc3nc(Nc4cc(CN5CCN(C(=O)CC(F)(F)F)CC5)ccn4)[nH]c3c2)c2ccsc2n1 [Example 104.01, 3,3,3-trifluoro-1-{4-[(2-{[6-(2-methylthieno[2,3-d]pyrimidin-4-yl)-1H-benzimidazol-2-yl]amino}pyridin-4-yl)methyl]piperazin-1-yl}propan-1-one] | 2600 nM
O=C(CC(F)(F)F)N1CCN(Cc2ccnc(Nc3nc4ccc(-c5ncnc6sccc56)cc4[nH]3)c2)CC1 [Example 105.01, 3,3,3-trifluoro-1-{4-[(2-{[6-(thieno[2,3-d]pyrimidin-4-yl)-1H-benzimidazol-2-yl]amino}pyridin-4-yl)methyl]piperazin-1-yl}propan-1-one] | 270 nM
O=C(CC(F)(F)F)N1CCN(Cc2ccnc(Nc3nc4ccc(-c5ccncc5C(F)(F)F)cc4[nH]3)c2)CC1 [Example 106.01, 3,3,3-trifluoro-1-(4-{[2-({6-[3-(trifluoromethyl)pyridin-4-yl]-1H-benzimidazol-2-yl}amino)pyridin-4-yl]methyl}piperazin-1-yl)propan-1-one] | 1500 nM
COc1c(-c2ccc3nc(Nc4cc(CN5CCN(C(=O)OC(C)(C)C)CC5)ccn4)[nH]c3c2)ncnc1N(C)C [Example 107.01.01, tert-butyl 4-{[2-({6-[6-(dimethylamino)-5-methoxypyrimidin-4-yl]-1H-benzimidazol-2-yl}amino)pyridin-4-yl]methyl}piperazine-1-carboxylate] | 52 nM
COc1c(-c2ccc3nc(Nc4cc(CN5CCN(C(=O)CC(F)(F)F)CC5)ccn4)[nH]c3c2)ncnc1N(C)C [Example 107.01.03, 1-(4-{[2-({6-[6-(dimethylamino)-5-methoxypyrimidin-4-yl]-1H-benzimidazol-2-yl}amino)pyridin-4-yl]methyl}piperazin-1-yl)-3,3,3-trifluoropropan-1-one] | 13 nM
COc1c(NC2CC2)ncnc1-c1ccc2nc(Nc3cc(CN4CCN(C(=O)OC(C)(C)C)CC4)ccn3)[nH]c2c1 [Example 108.01, tert-butyl 4-{[2-({6-[6-(cyclopropylamino)-5-methoxypyrimidin-4-yl]-1H-benzimidazol-2-yl}amino)pyridin-4-yl]methyl}piperazine-1-carboxylate] | 35 nM
COc1c(NC2CC2)ncnc1-c1ccc2nc(Nc3cc(CN4CCN(C(=O)CC(F)(F)F)CC4)ccn3)[nH]c2c1 [Example 108.02, 1-(4-{[2-({6-[6-(cyclopropylamino)-5-methoxypyrimidin-4-yl]-1H-benzimidazol-2-yl}amino)pyridin-4-yl]methyl}piperazin-1-yl)-3,3,3-trifluoropropan-1-one] | 8.2 nM
COc1c(NC2CC2)ncnc1-c1ccc2nc(Nc3cc(CN4CCN(C(=O)C5CC5)CC4)ccn3)[nH]c2c1 [Example 108.03, cyclopropyl(4-{[2-({6-[6-(cyclopropylamino)-5-methoxypyrimidin-4-yl]-1H-benzimidazol-2-yl}amino)pyridin-4-yl]methyl}piperazin-1-yl)methanone] | 8.9 nM
COc1c(NCC2CC2)ncnc1-c1ccc2nc(Nc3cc(CN4CCN(C(=O)OC(C)(C)C)CC4)ccn3)[nH]c2c1 [Example 109.01.01, tert-butyl 4-({2-[(6-{6-[(cyclopropylmethyl)amino]-5-methoxypyrimidin-4-yl}-1H-benzimidazol-2-yl)amino]pyridin-4-yl}methyl)piperazine-1-carboxylate] | 9.2 nM
COc1c(NCC2CC2)ncnc1-c1ccc2nc(Nc3cc(CN4CCN(C(=O)CC(F)(F)F)CC4)ccn3)[nH]c2c1 [Example 109.01.02, 1-[4-({2-[(6-{6-[(cyclopropylmethyl)amino]-5-methoxypyrimidin-4-yl}-1H-benzimidazol-2-yl)amino]pyridin-4-yl}methyl)piperazin-1-yl]-3,3,3-trifluoropropan-1-one] | 5.4 nM
COc1c(NCC2CC2)ncnc1-c1ccc2nc(Nc3cc(CN4CCN(C(=O)C5CC5)CC4)ccn3)[nH]c2c1 [Example 109.01.03, cyclopropyl[4-({2-[(6-{6-[(cyclopropylmethyl)amino]-5-methoxypyrimidin-4-yl}-1H-benzimidazol-2-yl)amino]pyridin-4-yl}methyl)piperazin-1-yl]methanone] | 8.7 nM

Continued, values first:

IC50 | SMILES
210 nM | Cc1noc(-c2ccc3nc(Nc4cc(CN5CCN(c6ccccn6)CC5)ccn4)[nH]c3c2)n1 [Example 101.15, 6-(3-methyl-1,2,4-oxadiazol-5-yl)-N-(4-{[4-(pyridin-2-yl)piperazin-1-yl]methyl}pyridin-2-yl)-1H-benzimidazol-2-amine]
190 nM | Cc1noc(-c2ccc3nc(Nc4cc(CN5CCN(C(=O)C(C)(C)O)CC5)ccn4)[nH]c3c2)n1 [Example 101.16, 2-hydroxy-2-methyl-1-{4-[(2-{[6-(3-methyl-1,2,4-oxadiazol-5-yl)-1H-benzimidazol-2-yl]amino}pyridin-4-yl)methyl]piperazin-1-yl}propan-1-one]
150 nM | COc1cccnc1N1CCN(Cc2ccnc(Nc3nc4ccc(-c5nc(C)no5)cc4[nH]3)c2)CC1 [Example 101.17, N-(4-{[4-(3-methoxypyridin-2-yl)piperazin-1-yl]methyl}pyridin-2-yl)-6-(3-methyl-1,2,4-oxadiazol-5-yl)-1H-benzimidazol-2-amine]
1500 nM | Cc1noc(-c2ccc3nc(Nc4cc(CN5CCN(c6ccc(C#N)cc6)CC5)ccn4)[nH]c3c2)n1 [Example 101.18, 4-{4-[(2-{[6-(3-methyl-1,2,4-oxadiazol-5-yl)-1H-benzimidazol-2-yl]amino}pyridin-4-yl)methyl]piperazin-1-yl}benzonitrile]
340 nM | Cc1cccc(N2CCN(Cc3ccnc(Nc4nc5ccc(-c6nc(C)no6)cc5[nH]4)c3)CC2)n1 [Example 101.19, 6-(3-methyl-1,2,4-oxadiazol-5-yl)-N-(4-{[4-(6-methylpyridin-2-yl)piperazin-1-yl]methyl}pyridin-2-yl)-1H-benzimidazol-2-amine]
560 nM | Cc1noc(-c2ccc3nc(Nc4cc(CN5CCN(C(N)=O)CC5)ccn4)[nH]c3c2)n1 [Example 101.20, 4-[(2-{[6-(3-methyl-1,2,4-oxadiazol-5-yl)-1H-benzimidazol-2-yl]amino}pyridin-4-yl)methyl]piperazine-1-carboxamide]
> 57000 nM | Cc1noc(-c2ccc3nc(Nc4cc(CN5CCN(c6ccc(F)c(F)c6)CC5)ccn4)[nH]c3c2)n1 [Example 101.21, N-(4-{[4-(3,4-difluorophenyl)piperazin-1-yl]methyl}pyridin-2-yl)-6-(3-methyl-1,2,4-oxadiazol-5-yl)-1H-benzimidazol-2-amine]
280 nM | Cc1noc(-c2ccc3nc(Nc4cc(CN5CCN(c6c(Cl)cncc6Cl)CC5)ccn4)[nH]c3c2)n1 [Example 101.23, N-(4-{[4-(3,5-dichloropyridin-4-yl)piperazin-1-yl]methyl}pyridin-2-yl)-6-(3-methyl-1,2,4-oxadiazol-5-yl)-1H-benzimidazol-2-amine]
160 nM | Cc1noc(-c2ccc3nc(Nc4cc(CN5CCN(C(=O)c6cccs6)CC5)ccn4)[nH]c3c2)n1 [Example 101.24, {4-[(2-{[6-(3-methyl-1,2,4-oxadiazol-5-yl)-1H-benzimidazol-2-yl]amino}pyridin-4-yl)methyl]piperazin-1-yl}(thiophen-2-yl)methanone]
310 nM | Cc1noc(-c2ccc3nc(Nc4cc(CN5CCN(C(=O)c6cccnc6)CC5)ccn4)[nH]c3c2)n1 [Example 101.26, {4-[(2-{[6-(3-methyl-1,2,4-oxadiazol-5-yl)-1H-benzimidazol-2-yl]amino}pyridin-4-yl)methyl]piperazin-1-yl}(pyridin-3-yl)methanone]
350 nM | Cc1noc(-c2ccc3nc(Nc4cc(CN5CCN(c6ncncn6)CC5)ccn4)[nH]c3c2)n1 [Example 101.27, 6-(3-methyl-1,2,4-oxadiazol-5-yl)-N-(4-{[4-(1,3,5-triazin-2-yl)piperazin-1-yl]methyl}pyridin-2-yl)-1H-benzimidazol-2-amine]
210 nM | CCC(=O)N1CCN(Cc2ccnc(Nc3nc4ccc(-c5nc(C)no5)cc4[nH]3)c2)CC1 [Example 101.28, 1-{4-[(2-{[6-(3-methyl-1,2,4-oxadiazol-5-yl)-1H-benzimidazol-2-yl]amino}pyridin-4-yl)methyl]piperazin-1-yl}propan-1-one]
450 nM | Cc1noc(-c2ccc3nc(Nc4cc(CN5CCN(c6cncc(Cl)n6)CC5)ccn4)[nH]c3c2)n1 [Example 101.29, N-(4-{[4-(6-chloropyrazin-2-yl)piperazin-1-yl]methyl}pyridin-2-yl)-6-(3-methyl-1,2,4-oxadiazol-5-yl)-1H-benzimidazol-2-amine]
560 nM | Cc1ccnc(N2CCN(Cc3ccnc(Nc4nc5ccc(-c6nc(C)no6)cc5[nH]4)c3)CC2)c1 [Example 101.30, 6-(3-methyl-1,2,4-oxadiazol-5-yl)-N-(4-{[4-(4-methylpyridin-2-yl)piperazin-1-yl]methyl}pyridin-2-yl)-1H-benzimidazol-2-amine]
510 nM | Cc1noc(-c2ccc3nc(Nc4cc(CN5CCN(C(=O)N6CCCC6)CC5)ccn4)[nH]c3c2)n1 [Example 101.31, {4-[(2-{[6-(3-methyl-1,2,4-oxadiazol-5-yl)-1H-benzimidazol-2-yl]amino}pyridin-4-yl)methyl]piperazin-1-yl}(pyrrolidin-1-yl)methanone]
16 nM | COc1c(-c2ccc3nc(Nc4cc(CN5CCN(C(=O)C6CC6)CC5)ccn4)[nH]c3c2)ncnc1N(C)C [Example 107.01.02, cyclopropyl(4-{[2-({6-[6-(dimethylamino)-5-methoxypyrimidin-4-yl]-1H-benzimidazol-2-yl}amino)pyridin-4-yl]methyl}piperazin-1-yl)methanone]
